Reference: ChEMBL document CHEMBL1201862, “PubChem BioAssay data set” (2004)
Active and inactive are the calls of the source.

Tests used:
[1] = HEp-2 cell cytotoxicity, dose response, cytotoxicity control for RSV inhibitor project, HTS (AID 2410); format: functional; conditions: human respiratory syncytial virus
[2] = target: T1, Heat shock factor protein 1 (Mus musculus, UniProt P38532); assay: inhibition of MG132-induced HSE-luciferase signal, confirmation, cell-based, NIH3T3, luminescence, dose retest (AID 2382); format: functional;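 note: NIH3T3 fibroblasts with HSF1-driven luciferase reporter stressed by proteasome inhibitor MG132; luminescence from HSF1-driven luciferase expression after 8 hours of MG132 stress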
T1 sequence (P38532 whole entry): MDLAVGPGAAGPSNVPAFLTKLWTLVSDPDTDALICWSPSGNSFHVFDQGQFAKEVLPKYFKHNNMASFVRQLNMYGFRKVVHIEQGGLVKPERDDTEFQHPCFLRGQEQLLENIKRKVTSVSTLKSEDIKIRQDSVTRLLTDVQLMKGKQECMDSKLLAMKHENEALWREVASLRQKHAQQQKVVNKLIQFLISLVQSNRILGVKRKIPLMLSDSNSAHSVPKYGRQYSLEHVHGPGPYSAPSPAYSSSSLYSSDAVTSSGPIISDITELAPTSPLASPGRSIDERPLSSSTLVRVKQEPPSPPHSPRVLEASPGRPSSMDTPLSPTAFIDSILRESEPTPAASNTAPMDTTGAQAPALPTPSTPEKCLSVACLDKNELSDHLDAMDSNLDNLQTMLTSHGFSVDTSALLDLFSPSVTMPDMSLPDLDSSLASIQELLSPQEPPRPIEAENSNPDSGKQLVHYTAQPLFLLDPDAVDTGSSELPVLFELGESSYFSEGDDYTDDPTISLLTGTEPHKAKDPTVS

Cytochrome P450 2C19 = Cytochrome P450 2C19 (Homo sapiens, UniProt P33261); assay: Cytochrome panel assay with activity outcomes. Panel member name: p450-cyp2c19 Compounds with AC50 equal or less than 10 uM are considered active; format: functional; conditions: read-out: AC50
[3] = inhibitors of firefly luciferase expression or activity, dose response, H4 neuroglioma cells, luminescence (AID 1990); format: functional, cell-based
[4] = inhibitors of SNCA 5'UTR-driven reporter translation, confirmation, H4 neuroglioma cells, luminescence (AID 1988); format: functional, cell-based
[5] = Luminescence Cell-Based Dose Response HTS to Identify Inhibitors of 5'UTR Stem-Loop Driven Prion Protein mRNA Translation in H4 Neuroglioblastoma Cells. [Related pubchem assays: 1827 (Project Summary), 1813 (Primary HTS)]; format: functional
Cytochrome P450 1A2 = target: T2, Cytochrome P450 1A2 (Homo sapiens, UniProt P05177);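 note: PubChem cytochrome P450 panel assay, CYP1A2 panel member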
T2 sequence (P05177 whole entry): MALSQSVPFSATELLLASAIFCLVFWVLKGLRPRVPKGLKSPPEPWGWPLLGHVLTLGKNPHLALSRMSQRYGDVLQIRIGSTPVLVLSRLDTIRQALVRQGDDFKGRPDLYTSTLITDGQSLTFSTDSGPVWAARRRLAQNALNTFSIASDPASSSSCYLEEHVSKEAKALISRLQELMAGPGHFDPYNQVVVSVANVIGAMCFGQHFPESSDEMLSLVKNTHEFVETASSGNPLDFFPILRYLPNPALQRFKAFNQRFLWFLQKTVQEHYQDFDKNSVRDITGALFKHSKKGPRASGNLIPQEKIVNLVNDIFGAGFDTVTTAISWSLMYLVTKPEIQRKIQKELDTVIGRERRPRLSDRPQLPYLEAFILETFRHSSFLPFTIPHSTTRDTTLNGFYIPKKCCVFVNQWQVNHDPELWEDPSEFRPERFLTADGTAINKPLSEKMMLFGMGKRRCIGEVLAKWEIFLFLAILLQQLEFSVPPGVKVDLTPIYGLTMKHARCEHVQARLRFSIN

Cytochrome P450 3A4 = Cytochrome P450 3A4 (Homo sapiens, UniProt P08684);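 note: CYP3A4 tested as one member of a cytochrome P450 panel screen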
Cytochrome P450 2C9 = Cytochrome P450 2C9 (Homo sapiens, UniProt P11712)
[6] = inhibitors of intracellular T. cruzi replication, confirmation, NIH3T3 host cells, beta-gal luminescence (AID 2044); format: functional, cell-based;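 note: intracellular parasites grown in NIH/3T3 mouse fibroblasts as host cells; luminescent beta-galactosidase reporter signal from transgenic T. cruzi replicating inside host cells; inhibitors lower the luminescence signal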
[7] = cytotoxicity toward NIH3T3 fibroblasts, dose response, counter-screen, cell-based, ATP luminescence, mouse fibroblasts (AID 2010); format: functional;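 note: cells exposed to compound for about 90 hours before reading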
[8] = target: T3, Corticotropin-releasing factor receptor 2/Corticotropin-releasing factor-binding protein (Homo sapiens, UniProt P24387+Q13324); assay: activators of CRF receptor 2 with binding protein – uHTS hits, confirmation (AID 602473); format: functional; conditions: read-out: EC50_Mean
T3 sequence (Q13324 whole entry): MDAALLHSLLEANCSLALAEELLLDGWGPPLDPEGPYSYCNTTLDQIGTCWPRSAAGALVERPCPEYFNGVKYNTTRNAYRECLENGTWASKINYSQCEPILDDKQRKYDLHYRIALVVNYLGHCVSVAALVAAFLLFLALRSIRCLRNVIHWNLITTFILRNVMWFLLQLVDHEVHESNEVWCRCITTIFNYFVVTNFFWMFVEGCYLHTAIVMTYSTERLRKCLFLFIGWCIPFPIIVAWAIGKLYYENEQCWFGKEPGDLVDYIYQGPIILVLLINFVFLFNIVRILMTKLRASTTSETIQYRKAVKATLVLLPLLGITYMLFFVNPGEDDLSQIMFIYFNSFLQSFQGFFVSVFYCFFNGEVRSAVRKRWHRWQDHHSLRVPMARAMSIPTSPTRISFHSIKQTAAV
T3 sequence (P24387 whole entry): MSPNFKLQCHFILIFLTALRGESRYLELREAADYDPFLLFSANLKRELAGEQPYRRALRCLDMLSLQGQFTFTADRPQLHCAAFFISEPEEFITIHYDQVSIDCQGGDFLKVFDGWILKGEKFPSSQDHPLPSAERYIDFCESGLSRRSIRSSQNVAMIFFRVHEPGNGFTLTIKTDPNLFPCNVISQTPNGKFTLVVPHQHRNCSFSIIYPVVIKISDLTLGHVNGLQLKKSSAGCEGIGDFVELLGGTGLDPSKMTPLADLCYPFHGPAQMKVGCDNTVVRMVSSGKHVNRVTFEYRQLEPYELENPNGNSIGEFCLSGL

Sequence of Cytochrome P450 3A4 (P08684 whole entry): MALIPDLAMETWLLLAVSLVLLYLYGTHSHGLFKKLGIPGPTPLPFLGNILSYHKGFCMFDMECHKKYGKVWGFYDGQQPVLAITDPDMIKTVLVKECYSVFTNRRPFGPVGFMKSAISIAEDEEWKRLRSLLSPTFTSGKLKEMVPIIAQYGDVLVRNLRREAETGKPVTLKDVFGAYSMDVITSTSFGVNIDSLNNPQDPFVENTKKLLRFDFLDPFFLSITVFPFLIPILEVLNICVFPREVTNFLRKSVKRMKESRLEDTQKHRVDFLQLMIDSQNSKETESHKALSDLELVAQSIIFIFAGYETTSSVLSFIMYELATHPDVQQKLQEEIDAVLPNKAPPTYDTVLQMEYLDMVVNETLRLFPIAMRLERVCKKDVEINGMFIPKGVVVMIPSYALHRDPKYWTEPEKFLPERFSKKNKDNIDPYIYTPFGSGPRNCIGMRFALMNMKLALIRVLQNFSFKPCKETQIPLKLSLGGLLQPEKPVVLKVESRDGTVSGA
Sequence of Cytochrome P450 2C19 (P33261 whole entry): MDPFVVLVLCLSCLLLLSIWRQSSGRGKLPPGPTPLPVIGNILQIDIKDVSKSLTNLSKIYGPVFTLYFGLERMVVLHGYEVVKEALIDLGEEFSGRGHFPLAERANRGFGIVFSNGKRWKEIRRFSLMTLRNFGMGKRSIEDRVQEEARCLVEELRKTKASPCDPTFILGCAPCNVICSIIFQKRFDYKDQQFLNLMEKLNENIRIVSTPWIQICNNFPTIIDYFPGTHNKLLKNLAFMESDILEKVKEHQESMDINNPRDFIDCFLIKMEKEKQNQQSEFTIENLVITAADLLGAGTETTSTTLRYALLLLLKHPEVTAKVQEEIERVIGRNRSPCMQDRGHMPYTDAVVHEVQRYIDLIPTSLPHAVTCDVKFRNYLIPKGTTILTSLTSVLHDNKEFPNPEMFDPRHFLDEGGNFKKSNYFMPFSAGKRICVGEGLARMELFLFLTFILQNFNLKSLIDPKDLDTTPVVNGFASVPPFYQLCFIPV
Sequence of Cytochrome P450 2C9 (P11712 whole entry): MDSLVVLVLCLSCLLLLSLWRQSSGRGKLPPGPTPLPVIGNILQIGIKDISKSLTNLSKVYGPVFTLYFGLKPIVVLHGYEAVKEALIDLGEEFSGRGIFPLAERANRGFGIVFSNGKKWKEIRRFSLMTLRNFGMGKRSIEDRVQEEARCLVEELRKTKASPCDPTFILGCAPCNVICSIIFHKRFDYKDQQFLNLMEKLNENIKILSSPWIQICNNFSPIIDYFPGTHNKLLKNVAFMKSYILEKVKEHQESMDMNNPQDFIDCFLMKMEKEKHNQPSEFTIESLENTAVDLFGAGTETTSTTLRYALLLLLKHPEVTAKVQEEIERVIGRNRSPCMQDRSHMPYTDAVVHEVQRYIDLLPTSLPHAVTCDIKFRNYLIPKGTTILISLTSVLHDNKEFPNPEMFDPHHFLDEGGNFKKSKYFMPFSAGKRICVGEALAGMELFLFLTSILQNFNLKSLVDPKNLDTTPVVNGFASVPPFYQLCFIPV

CCCCCc1nc2c(c(=O)c3ccccc3n2C)c(=O)n1Cc1ccc(OC)cc1
CC50 [1]: > 50 µM (active)

CCOc1ccc(N/C(=N/N)c2ccc3ccccc3n2)cc1
EC50 [2]: > 195 µM (not active)

O=C(c1ccc2c(=O)n(Cc3ccccc3)c(=S)[nH]c2c1)N1CCOCC1
EC50 [2]: > 195 µM (not active)

CS(=O)(=O)N1CCC2(CC1)CN(c1ccncc1)C2
AC50 (Cytochrome P450 2C19): 20 µM (inconclusive)

Cc1cccc(-c2nnc3n2N=C(c2ccccc2)CS3)c1
EC50 [3]: > 120 µM (not active) | EC50 [4]: 12.4 µM (active) | EC50 [5]: > 120 µM (not active)

Cc1noc(C)c1COC(=O)c1cccc(N(C)C)c1
CC50 [1]: 11.9 µM (active)

Cc1noc(C)c1CSCC(=O)Nc1ccc(S(=O)(=O)C(F)F)cc1
EC50 [2]: > 195 µM (not active)

N#Cc1c(-c2ccc3c(c2)OCO3)csc1N
EC50 [2]: > 195 µM (not active)

CC(Nc1ccccc1CO)C(=O)Nc1cccc(Cl)c1Cl (stereo not given)
EC50 [3]: 7.64 µM (active) | EC50 [4]: 12.9 µM (active) | EC50 [5]: 0.12 µM (active)

Cc1ccc2nc(CC(=O)c3ccc4ccccc4c3)c(O)nc2c1
AC50 (Cytochrome P450 1A2): 2 µM (inconclusive) | AC50 (Cytochrome P450 2C19): 0.794 µM (inconclusive) | AC50 (Cytochrome P450 3A4): 3.98 µM (inconclusive)

COc1c(Br)cc([N+](=O)[O-])c(OC)c1C(=O)NC(=O)Nc1cc(Cl)cc(Cl)c1
EC50 [3]: > 120 µM (not active) | EC50 [4]: 15.1 µM (active) | EC50 [5]: 17.8 µM (active)

COc1cc2c(cc1OC)CN(C(=O)CCCOc1ccc(Cl)cc1Cl)CC2
CC50 [1]: 24.7 µM (active)

CCN1CCN(Cc2ccc(NC(=O)c3cc(NC(=O)c4cnnc5ccccc45)cc(OC)c3)cc2C(F)(F)F)CC1
CC50 [1]: 29 µM (active)

CC(C)OCCCNC(=O)C1CC(=O)N(C2CCCCCCC2)C1 (stereo not given)
AC50 (Cytochrome P450 2C19): 17.8 µM (inconclusive) | AC50 (Cytochrome P450 3A4): 25.1 µM (inconclusive)

COC(=O)[C@@]1(Cc2ccc(F)cc2)[C@H]2c3cc(C(=O)N4CCCC4)n(Cc4ccccn4)c3C[C@H]2CN1C(=O)c1ccccc1
AC50 (Cytochrome P450 1A2): 20 µM (inconclusive) | AC50 (Cytochrome P450 2C19): 39.8 µM (inconclusive)

Cc1n[nH]c(C)c1S(=O)(=O)N1CCC(C(=O)O)CC1
AC50 (Cytochrome P450 2C19): 22.4 µM (inconclusive)

CN(c1ccccc1)S(=O)(=O)c1nnc(NC(=O)COc2ccccc2F)s1
EC50 [2]: > 195 µM (not active)

C[C@]12CC[C@H]3c4ccc(OC[C@H]5CO5)cc4CC[C@H]3[C@H]1CC[C@@H]2O
AC50 (Cytochrome P450 2C19): 3.16 µM (inconclusive) | AC50 (Cytochrome P450 2C9): 3.16 µM (inconclusive)

N#CN(CC(N)=O)c1nc(N2CCCCC2)nc(N2CCCCC2)n1
AC50 (Cytochrome P450 2C19): 22.4 µM (inconclusive) | AC50 (Cytochrome P450 2C9): 10 µM (inconclusive)

CCSc1nnc(NC(=O)C(Cc2ccccc2)n2cccc2)s1 (stereo not given)
EC50 [2]: > 195 µM (not active)

C=C(C)Cn1c(NCCC)nc2c1c(=O)n(C)c(=O)n2C
EC50 [2]: > 195 µM (not active)

COc1ccc(NC(=O)CC#N)cc1OC
AC50 (Cytochrome P450 2C19): 0.00501 µM (inconclusive)

O=C(Nc1ccc2ccccc2c1)c1cn(-c2ccccc2)nc1-c1cccs1
EC50 [6]: 1.86 µM (active) | CC50 [1]: 18.6 µM (active) | EC50 [7]: > 60 µM (not active)

Clc1ccc2c(c1)N(CCCN1CCCC13CCCCC3)c1ccccc1S2
AC50 (Cytochrome P450 2C19): 5.01 µM (inconclusive)

CCc1nc2c(c(=O)c3ccccc3n2C)c(=O)n1C1CCCCCC1
CC50 [1]: 20.7 µM (active) | EC50 [8]: 6.21 µM (active)

COC(=O)[C@@H]1CC[C@H](C)[C@@H](c2ccc(C)cc2)N1C(=O)c1ccc(/C=N\OC[C@@H](O)COCc2ccco2)cc1
AC50 (Cytochrome P450 2C19): 2.51 µM (inconclusive) | AC50 (Cytochrome P450 3A4): 1.26 µM (inconclusive)

C=CCn1c(SCC(=O)NCCc2ccccc2)nnc1C(C)NC(=O)c1cccs1 (stereo not given)
EC50 [2]: > 195 µM (not active)

CC(C)CC1Nc2ccc(C(=O)NCCCN3CCOCC3)cc2NC1=O (stereo not given)
EC50 [2]: > 195 µM (not active)

O=C(CN1CCN(Cc2ccccc2Cl)C1=O)NCc1ccccn1
EC50 [3]: > 120 µM (not active) | EC50 [4]: > 120 µM (not active) | EC50 [5]: > 120 µM (not active)

COc1ccc(NS(=O)(=O)c2ccc(-c3ccccn3)s2)cc1
EC50 [2]: > 195 µM (not active)

Cc1cc([N+](=O)[O-])ccc1NC(=O)CCC(=O)N1CCCCC1
EC50 [2]: > 195 µM (not active)

CCOc1ccccc1-n1c(SCC(=O)Nc2ccc(CC)cc2)nc2nnc(C)c-2c1N
CC50 [1]: 45.1 µM (active) | EC50 [3]: > 60 µM (not active) | EC50 [4]: 9.77 µM (active)

CC1(C)Cc2ccccc2C(NNC(=O)c2ccncc2)=N1
AC50 (Cytochrome P450 2C19): 31.6 µM (inconclusive)

COc1cccc(C(c2nnnn2Cc2ccco2)N2CCN(c3cccc(C)c3C)CC2)c1OC (stereo not given)
CC50 [1]: 18.5 µM (active)

O=C(NNC(=O)C12CC3CC(CC(C3)C1)C2)c1ccccc1F
EC50 [3]: 17.7 µM (active) | EC50 [4]: 10.2 µM (active) | EC50 [5]: > 120 µM (not active)

CCN(CC)c1nc2c(c(=O)[nH]c(=O)n2C)n1CCOc1ccccc1
EC50 [2]: > 195 µM (not active)

COc1ccccc1C(=O)N/C(=C\c1cn(S(=O)(=O)N(C)C)c2ccccc12)C(=O)NCCN1CCOCC1
EC50 [2]: > 195 µM (not active)

COC(=O)N1CCC2(CCCN(C(=O)Nc3cccc(C#N)c3)C2)CC1
AC50 (Cytochrome P450 2C19): 10 µM (inconclusive) | AC50 (Cytochrome P450 3A4): 6.31 µM (inconclusive)

COc1cc2cc(CN(C(=O)NC3CCCCC3)C3CCCC3)c(O)nc2cc1OC
EC50 [2]: > 195 µM (not active)

CCN(C(=O)C1CCCN(c2ncnc3c2nc2n3CCCCC2)C1)c1cccc(Cl)c1 (stereo not given)
CC50 [1]: 10.7 µM (active)

COc1ccc(CC(=N)NOC(=O)Cc2ccccc2)cc1OC
AC50 (Cytochrome P450 1A2): 14.1 µM (inconclusive) | AC50 (Cytochrome P450 2C19): 15.8 µM (inconclusive)
